Measured values: publication PMC11249239 (PLOS ONE, 2024)
Like-named read-outs stand apart in the source and are kept apart here.

Legend:
[1] = system: T47D (ER+) cells; experiment: Cell growth inhibition (CCK8 cytotoxicity assay), T47D; format: cell-based; conditions: 48 h treatment, read-out: Average EC50 ± SD, cell growth inhibition
[2] = system: MCF10A cells; experiment: Radiation clonogenic survival assay, MCF10A; format: cell-based; conditions: 0.3 μM for 24 h then graded γ-radiation, control 2.5 Gy
Description: Logarithmically growing cells were treated with vehicle (0.1% Dimethyl Sulfoxide) or SP-1-303 (0.3 μM) for 24 h followed by sham or γ-radiation using a Mark-30 irradiator with a 137Cs source at a fixed dose rate of 2.71 Gy/min. Cells were exposed to graded doses at room temperature. After 10–14 days, cells were fixed and stained with crystal violet, and colonies were counted. The surviving fractions of treated cells were normalized using the plating efficiencies of untreated controls. Radiation survival curves were generated by fitting to the single-hit, multitarget model.

[3] = biological target: T1, HDAC6 (Homo sapiens, UniProt Q9UBN7); experiment: In vitro HDAC isoform inhibition, purified recombinant HDAC6; format: biochemical
T1 construct: purchased PBS Bioscience [sic] (San Diego, CA); host or cells: Sf9 insect cells / baculovirus
T1 sequence (Q9UBN7 1-1215): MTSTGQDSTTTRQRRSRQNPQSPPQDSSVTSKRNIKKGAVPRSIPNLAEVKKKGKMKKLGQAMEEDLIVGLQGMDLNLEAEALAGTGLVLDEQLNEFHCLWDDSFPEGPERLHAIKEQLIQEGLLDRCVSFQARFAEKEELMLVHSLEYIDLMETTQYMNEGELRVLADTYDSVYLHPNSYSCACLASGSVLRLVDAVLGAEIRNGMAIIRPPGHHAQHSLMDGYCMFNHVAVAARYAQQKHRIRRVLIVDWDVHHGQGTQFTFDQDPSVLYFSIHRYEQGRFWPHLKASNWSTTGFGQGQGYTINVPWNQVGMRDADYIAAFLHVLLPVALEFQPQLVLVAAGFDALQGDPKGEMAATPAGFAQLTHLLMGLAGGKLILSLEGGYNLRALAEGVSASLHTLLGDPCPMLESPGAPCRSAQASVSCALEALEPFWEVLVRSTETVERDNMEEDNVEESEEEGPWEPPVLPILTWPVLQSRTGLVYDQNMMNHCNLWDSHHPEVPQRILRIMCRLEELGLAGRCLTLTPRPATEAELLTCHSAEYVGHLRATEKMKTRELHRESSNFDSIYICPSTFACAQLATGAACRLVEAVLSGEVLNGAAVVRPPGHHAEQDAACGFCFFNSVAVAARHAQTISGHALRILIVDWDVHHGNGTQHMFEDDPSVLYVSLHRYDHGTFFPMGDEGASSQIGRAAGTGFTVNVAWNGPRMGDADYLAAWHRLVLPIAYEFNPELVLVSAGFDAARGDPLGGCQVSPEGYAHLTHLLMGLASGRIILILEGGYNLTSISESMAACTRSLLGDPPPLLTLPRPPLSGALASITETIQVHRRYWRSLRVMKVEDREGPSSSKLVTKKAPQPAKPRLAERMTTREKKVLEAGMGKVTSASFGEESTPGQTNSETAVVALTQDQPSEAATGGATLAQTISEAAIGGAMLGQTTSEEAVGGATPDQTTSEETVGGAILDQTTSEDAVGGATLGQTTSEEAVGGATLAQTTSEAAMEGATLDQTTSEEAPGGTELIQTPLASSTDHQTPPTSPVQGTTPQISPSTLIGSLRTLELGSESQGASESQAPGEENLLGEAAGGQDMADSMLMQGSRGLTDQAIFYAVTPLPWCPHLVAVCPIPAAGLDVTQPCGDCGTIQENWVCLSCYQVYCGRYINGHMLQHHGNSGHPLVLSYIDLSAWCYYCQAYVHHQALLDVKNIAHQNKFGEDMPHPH
From the text: (§1) In vitro HDAC enzyme inhibition assays utilized HeLa cell extract for pan-HDACs with the substrate Fluor-Lys following the manufacturer’s protocol (BIOMOL/ENZO, Plymouth Meeting, PA). For isoform assays, purified HDAC1, HDAC3, and HDAC6 recombinant proteins produced by expressing epitope-tagged full-length proteins in the sf9 baculovirus expression vector system were purchased from PBS Bioscience (San Diego, CA). […] The reaction commenced with the addition of HDAC substrate at room temperature and proceeded for 30 minutes. Termination of the reaction was achieved by adding 50 μL of Fluor de Lys (TM) Assay Developer. The fluorophore was excited at 360 nm and emitted light at 460 nm. Relative fluorescence was measured using a FlexStation II plate reader (Molecular Devices, Sunnyvale, CA).

[4] = system: HCC-1937 (TNB) cells; experiment: Cell growth inhibition (CCK8 cytotoxicity assay), HCC-1937; format: cell-based; conditions: 48 h treatment, read-out: Average EC50 ± SD, cell growth inhibition
[5] = system: MCF10A normal breast epithelial cells; experiment: Cell growth inhibition (CCK8 cytotoxicity assay), MCF10A; format: cell-based; conditions: 48 h treatment, read-out: Average EC50 ± SD, cell growth inhibition
[6] = biological target: T2, HDAC3 (Homo sapiens, UniProt O15379); experiment: In vitro HDAC isoform inhibition, purified recombinant HDAC3; format: biochemical; conditions: purified recombinant protein; ± margin of error of 95% confidence interval; read-out: IC50 HDAC inhibition activity in vitro, HDAC 3
T2 construct: purchased PBS Bioscience [sic] (San Diego, CA); host or cells: Sf9 insect cells / baculovirus
T2 sequence (O15379 whole entry, canonical isoform): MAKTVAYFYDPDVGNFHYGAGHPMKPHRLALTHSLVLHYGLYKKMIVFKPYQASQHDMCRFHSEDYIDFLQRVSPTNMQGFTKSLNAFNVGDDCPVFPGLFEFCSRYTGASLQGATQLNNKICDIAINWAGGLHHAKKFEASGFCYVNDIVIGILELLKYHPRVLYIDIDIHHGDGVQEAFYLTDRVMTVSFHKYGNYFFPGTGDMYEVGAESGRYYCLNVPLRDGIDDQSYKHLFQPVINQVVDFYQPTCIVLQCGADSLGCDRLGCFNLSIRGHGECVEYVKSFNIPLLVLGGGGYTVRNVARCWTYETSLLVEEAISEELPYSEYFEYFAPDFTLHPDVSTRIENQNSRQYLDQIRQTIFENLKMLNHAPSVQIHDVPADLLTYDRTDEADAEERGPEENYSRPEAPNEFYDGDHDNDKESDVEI
T2 sequence (Q9Y618 395-489 partner limits assumed): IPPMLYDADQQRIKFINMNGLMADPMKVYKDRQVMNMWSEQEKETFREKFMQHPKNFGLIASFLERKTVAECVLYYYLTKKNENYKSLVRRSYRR
From the text: as §1

[7] = system: p53; experiment: Western blot of nuclear extracts, p53 expression; format: cell-based; conditions: 1 μM, time course
From the text: (§2) Following treatment of cells with SP-1-303 over a time course, total or nuclear proteins were extracted and analyzed on 4–20% trisglycine gradient sodium dodecyl sulfate polyacrylamide gel electrophoresis (SDS-PAGE). Subsequently, membranes were probed with antibodies targeting specific proteins in accordance with the manufacturers’ protocols, including ATM (ab78), p-BRCA1 (ab90528), BRCA1 (ab191042), p-p53/S15 (ab1431), acetylated H3K9 (ab12179) from Abcam, as well as p-ATM (# 5883) and p53 (#9282) from Cell Signaling, α-tubulin (T6793) and β-actin (A3854) from Sigma-Aldrich, ER-α (cat# MA1-80216, Invitrogen) and HDAC2 (BML-SA402. Enzo). Protein images were captured using ECL Prime Western Blotting Detection Reagents (Cat#. RPN2232, Amersham) and the Amersham Imager 600. For immunofluorescent analysis, formalin fixed cells were permeabilized with 0.1% Triton X-100 in TBS for 10 minutes at room temperature, followed by blocking with 1% Blocker BSA for 15 minutes at room temperature. Cells were then probed with a phospho-ATM monoclonal antibody (MA5-15185) and DyLight 488 goat anti-mouse IgG secondary antibody at room temperature. Actin was stained with DyLight 554 phalloidin, while nuclei were stained with 4’,6-diamidino-2-phenylindole dye (DAPI). Images were captured using a Nikon Epi Fluorescent microscopy.

[8] = system: phosphorylated BRCA1; experiment: Western blot, phosphorylated BRCA1; format: cell-based; conditions: 1 μM
From the text: as §2

[9] = system: ER-α; experiment: Western blot of nuclear extracts, ER-α expression; format: cell-based; conditions: MCF7; 1 μM; from 2h to 6h
From the text: as §2

For `Cc1[nH]c2ccccc2c1C1=C(c2c(C)[nH]c3ccccc23)C(=O)N(CCCCCCC(=O)NO)C1=O` [SP-1-303], the EC50 [1] was 321 ± 27 nM, the EC50 ([1]; Homo sapiens, T47D, 48 h) was 320 nM and the “D0, radiation clonogenic survival” value [2] was 2.4 Gy. For the same molecule, the “ratio of inhibitory concentrations for HDAC6 to HDAC1” value [3] was 36 fold, the IC50 ([3]; purified recombinant protein, ± margin of error of 95% confidence interval, read-out: IC50 HDAC inhibition activity in vitro, HDAC 6) was 435 ± 35 nM and the “Ratio (HDAC6:HDAC1)” value ([3]; ratio of IC50 values) was 36. For the same molecule, the EC50 [4] was 2480 nM, the EC50 ([4]; Homo sapiens, HCC1937, 48 h) was 2500 nM and the EC50 [5] was 12200 nM. The EC50 ([5]; Homo sapiens, MCF-10A, 48 h) was ~12000 nM, the IC50 [6] was 14 ± 2 nM and the “expression of p53” value ([7]; MCF7) was “gradual increase”. The “expression of p53” value ([7]; MDA-MB-231) was “no significant change”, the “phosphorylated BRCA1” value ([8]; MCF7, within 1h to 2h) was “induction” and the “phosphorylated BRCA1” value ([8]; MDA-MB-231) was “without significant alteration”. The ER-α expression [9] was “gradual reduction”.
